Source: patent US20120088769A1, “SALTS OF ARYLSULFONAMIDE CCR3 ANTAGONISTS” (Axikin Pharmaceuticals, Inc., priority 2010, published 2012)

Assay: Solubility assessment in water (aqueous solubility)
Type: physicochemical
Conditions: thermodynamic from solid
Experimental: Solubility assessment: A preweighed amount of powder of a salt was treated with water to target a nominal concentration of 50 mg/mL. If a clear solution was obtained, then the solubility was noted as ≧50 mg/mL. If a suspension was obtained, it was sonicated for 1 min, followed by vortex mixing for 30 sec, and centrifuged for 5 min. The mother liquor was siphoned off and assayed for content against a standard of the free base by HPLC.

| solubility at 1.5 min (Camsylate salt) [µg/mL] | solubility at 1.5 min (Free base) [µg/mL] | solubility at 1.5 min (HBr salt) [µg/mL] | solubility at 1.5 min (HCl salt) [µg/mL] | solubility at 1.5 min (Mesylate salt) [µg/mL] | solubility at 1.5 min (Citrate salt) [µg/mL] | solubility at 1.5 min (Phosphate salt) [µg/mL] | solubility at 1.5 min (Sulfate salt) [µg/mL] | solubility at 1.5 min (Tosylate salt) [µg/mL] | solubility at 1.5 min (Tartrate salt) [µg/mL] | Structure (SMILES) |
| --- | --- | --- | --- | --- | --- | --- | --- | --- | --- | --- |
| 80 | < 10 | 30 | 330 | 200 | – | – | – | – | – | CCN1CCN(S(=O)(=O)c2cc(C#N)ccc2Oc2cc(C)cc(C)c2)CC1 [Cmpd 3, 4-(3,5-dimethylphenoxy)-3-(4-ethylpiperazin-1-ylsulfonyl)benzonitrile] |
| – | < 10 | – | 3670 | 3810 | 800 | 2910 | 2350 | – | – | N#Cc1ccc(Oc2cc(Cl)cc(Cl)c2)c(S(=O)(=O)N2CCC(NC(=O)NCCN3CCOCC3)CC2)c1 [Cmpd 7, 1-(1-(5-cyano-2-(3,5-dichlorophenoxy)phenylsulfonyl)piperidin-4-yl)-3-(2-morpholinoethyl)urea] |
| 250 | < 10 | 1000 | 1590 | 10000 | – | 1660 | 600 | 300 | – | CCN1CCN(S(=O)(=O)c2cc([N+](=O)[O-])ccc2Oc2cc(Cl)cc(Cl)c2)CC1 [Cmpd 6, 1-(2-(3,5-dichlorophenoxy)-5-nitrophenylsulfonyl)-4-ethylpiperazine] |
| – | < 10 | 400 | 1360 | 7260 | – | 1700 | 790 | – | 450 | CN1CCN(S(=O)(=O)c2cc(C#N)ccc2Sc2cc(Cl)cc(Cl)c2)CC1 [Cmpd 1, 4-(3,5-dichlorophenylthio)-3-(4-methylpiperazin-1-ylsulfonyl)benzonitrile] |
| – | < 10 | – | 110 | 230 | – | 10000 | 1200 | – | – | N#Cc1ccc(Sc2cc(Cl)cc(Cl)c2)c(S(=O)(=O)N2CCN(C3CCCC3)CC2)c1 [Cmpd 5, 3-(4-cyclopentylpiperazin-1-ylsulfonyl)-4-(3,5-dichlorophenylthio)-benzonitrile] |
| – | < 10 | – | 1400 | 10900 | – | 2400 | 580 | – | – | CN1CCN(CCNC(=O)NC2CCN(S(=O)(=O)c3cc(C#N)ccc3Oc3cc(Cl)cc(Cl)c3)CC2)CC1 [Cmpd 8, 1-(1-(5-cyano-2-(3,5-dichlorophenoxy)phenylsulfonyl)piperidin-4-yl)-3-(2-(4-methylpiperazin-1-yl)ethyl)urea] |
| – | < 10 | – | – | 270 | – | 120 | 230 | – | – | CCN1CCN(S(=O)(=O)c2cc(C#N)ccc2Oc2cc(Cl)cc(Cl)c2)CC1 [Cmpd 2, 4-(3,5-dichlorophenoxy)-3-(4-ethylpiperazin-1-ylsulfonyl)benzonitrile] |
| 240 | < 10 | 200 | 800 | 23000 | – | – | 1100 | – | – | CC(C)N1CCN(S(=O)(=O)c2cc(C#N)ccc2Sc2cc(Cl)cc(Cl)c2)CC1 [Cmpd 4, 4-(3,5-dichlorophenylthio)-3-(4-isopropylpiperazin-1-ylsulfonyl)benzonitrile] |
